Structures can show the parent of a compound that is named as a salt.
Columns and labels:
[1] = target: hA2A receptor (Homo sapiens (Human), UniProt P29274); experiment: A2A FRET-based binding assay; conditions: HEK GFP-A2A stable cell line, dyed CGS15943-derived probe
Experimental: Assay protocol: Compounds were evaluated on an in-vitro binding assay developed based on the technology described in the patent WO 98/55873. This assay was developed from hA2A receptor that was fused at its amino terminal domain to Green Fluorescent Protein (GFP) and stably expressed in HEK cells. The probe used is a dyed ligand derived from the non-selective CGS15943. For the FRET-binding experiment, HEK GFP-A2A stable cell line was seeded onto poly-D-lysine precoated black-walled 96-well plates in normal growth media (0.7 10^5 cells per well). After 24 hours of culture at 37° C., the cell media was removed and cells were washed. The tested compounds were applied on cells by the FLIPR^TETRA® (Molecular Devices®) and incubated for 10 minutes prior to addition of the dyed probe. When a drug interacts with the receptor, the FRET signal measured by the variation of GFP fluorescence at 510 nm is disrupted. The time curves of ligand binding were recorded during 1000 seconds. (excitation Light Emitting Diode 470-495 nm, emission 510+/−10 nm). The percentage of inhibition allows the evaluation of the inhibitory activity of compounds in comparison to the antagonist A2A reference CGS15943. The dose-inhibition curves were fitted with variable slope, using GraphPad® Prism software, in order to determine […] and Ki values. The dose-inhibition experiments were all performed in duplicate, three times independently.

[2] = target: human A2A receptor (Homo sapiens, UniProt P29274); experiment: A2A-antagonist Ca++ functional assay (CGS21680 at EC80); type: cell-based; conditions: HEK cells expressing GFP-hA2A and Gα15, inhibition of CGS21680 (EC80)-induced Ca2+ increase
Excerpt: Assay protocol: HEK cells stably expressing the human A2A receptor fused at its amino terminal domain to GFP, and cultured in Modified Eagle's Medium supplemented with 10% FCS, were transiently transfected by electroporation with plasmid DNA encoding the promiscuous G protein Gα15 in order to deviate the natural coupling of the receptor from AMPc production to calcium (Ca^2+) release pathway (Brabet et al., Neuropharmacology 37:1043-1051, 1998). Receptor activity was detected by changes in intracellular Ca^2+, measured using the fluorescent Ca^2+ sensitive dye, Fluo4AM (Molecular Probes®).
Cells were plated after transfection onto polyornithine coated, clear bottom, black-walled, 96-well plates and cultured for 24 hours. The day of the test, cells were washed with freshly prepared buffer B (HBSS 1×, Hepes 20 mM, MgSO4.7H2O 1 mM, Na2CO3 3.3 mM, CaCl2-2H2O 1.3 mM, 0.5% BSA, Probenecid 2.5 mM) and loaded at 37° C. in 5% CO2 for 1.5 hours with buffer B containing 1 μM Fluo4AM and 0.1 mg/mL Pluronic Acid. Afterwards cells were washed twice with buffer B and 50 μL of this buffer were added to each well. The tested compounds were incubated […] before addition of CGS21680 (used as reference agonist) at a concentration leading to 80% of its maximal activity (EC80). Afterwards, the intracellular Ca^2+ measurements were performed on a 60s kinetic by detection of the fluorescence intensity (excitation 485 nm, emission 525 nm) using the fluorescence microplate reader FlexStation® (Molecular Devices®). All data reflect three independent experiments. Dose-response curves were fitted by using the sigmoidal dose-response (variable slope) analyze in GraphPad Prism® program (San Diego) and IC50 of antagonist compound was calculated. Dose-response experiments were all performed in triplicate, three times independently.

Chain of hA2A receptor (P29274 whole entry, the tested form may be a part): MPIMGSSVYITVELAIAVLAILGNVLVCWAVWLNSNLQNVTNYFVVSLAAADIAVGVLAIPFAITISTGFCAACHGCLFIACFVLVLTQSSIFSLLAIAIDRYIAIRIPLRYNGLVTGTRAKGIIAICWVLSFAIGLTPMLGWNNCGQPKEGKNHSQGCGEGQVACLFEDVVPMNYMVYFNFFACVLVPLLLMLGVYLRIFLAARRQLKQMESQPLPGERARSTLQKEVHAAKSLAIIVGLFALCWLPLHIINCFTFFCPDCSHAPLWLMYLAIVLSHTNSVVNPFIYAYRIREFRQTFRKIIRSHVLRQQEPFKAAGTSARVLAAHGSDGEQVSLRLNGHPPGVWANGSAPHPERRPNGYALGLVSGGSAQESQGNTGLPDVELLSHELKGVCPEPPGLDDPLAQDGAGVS

SMILES | melting point | Ki [1] | IC50 [2]
N#Cc1ccc2ncc(C(=O)c3ccc(C(=O)N4CCCCCC4)cc3F)n2c1 [Example 73, 3-[4-(Azepan-1-ylcarbonyl)-2-fluorobenzoyl]imidazo[1,2-a]pyridine-6-carbonitrile] | 128 to 130 °C | – | –
Cl.O=C(c1ccc2c(-c3cnc4ccc(F)cn34)nn(Cc3ccccc3)c2c1)N1CCCCCC1 [Example 107, Azepan-1-yl-[1-benzyl-3-(6-fluoro-imidazo[1,2-a]pyridin-3-yl)-1H-indazol-6-yl]-methanone, HCl salt] | 134 to 135 °C | 34 ± 5 nM | –
Cl.O=C(c1ccc2c(-c3cnc4ccc(F)cn34)nn(CCc3ccccc3)c2c1)N1CCCCCC1 | 139 to 140 °C | – | –
Cn1nc(-c2cnc3ccc(F)cn23)c2ccc(C(=O)N3CCCCCC3)cc21 [Example 79, Azepan-1-yl-[3-(6-fluoro-imidazo[1,2-a]pyridin-3-yl)-1-methyl-1H-indazol-6-yl]-methanone] | – | 4 ± 1 nM | 15 ± 4 nM
CCN(C(=O)c1ccc(C(=O)c2cnc3ccc(Br)cn23)cc1)C1CCCCC1 [Example 10, 4-(6-Bromo-imidazo[1,2-a]pyridine-3-carbonyl)-N-cyclohexyl-N-ethyl-benzamide] | – | 108 ± 74 nM | 891 ± 571 nM
Cl.Cn1nc(-c2cnc3ccc(F)cn23)c2ccc(C(=O)N(CC3CC3)C3CCCCC3)cc21 | 235 to 245 °C | – | –
O=C(c1ccc(C(=O)N(C2CCCCC2)C2CCCCC2)cc1)c1cnc2ccccn12 [Example 48, N,N-Dicyclohexyl-4-(imidazo[1,2-a]pyridine-3-carbonyl)-benzamide] | – | 138 ± 115 nM | 945 ± 419 nM
CCN(C(=O)c1ccc(C(=O)c2cnc3ccc(Cl)nn23)cc1)C1CCCCC1 [Example 139, N-Cyclohexyl-N-ethyl-4-(6-chloroimidazo[1,2-b]pyridazin-3-ylcarbonyl)-benzamide] | – | 459 ± 270 nM | –
N#Cc1ccc2ncc(-c3noc4cc(C(=O)N5CCOCC5)ccc34)n2c1 [Example 125, 3-[6-(Morpholin-4-ylcarbonyl)-1,2-benzisoxazol-3-yl]imidazo[1,2-a]pyridine-6-carbonitrile, HCl salt] | – | 147 ± 54 nM | –
Cl.Cn1nc(-c2cnc3ccc(F)cn23)c2ccc(C(=O)N3CCCCCCCC3)cc21 (hydrate or solvate) | 240 to 245 °C | – | –
COC[C@H]1CCCN1C(=O)c1ccc2c(-c3cnc4ccc(C#N)cn34)nn(C)c2c1.Cl (hydrate or solvate) [Example 101, 3-(1-Methyl-6-{[(2R)-2-(methoxymethyl)pyrrolidin-1-yl]carbonyl}-1H-indazol-3-yl)imidazo[1,2-a]pyridine-6-carbonitrile, chlorhydrate salt] | 230 to 235 °C | – | –
CCN(C(=O)c1ccc(C(=O)c2cnc3ccc(F)cn23)cc1Cl)C1CCCCC1 [Example 24, 2-Chloro-N-cyclohexyl-N-ethyl-4-(6-fluoro-imidazo[1,2-a]pyridine-3-carbonyl)-benzamide] | – | 34 ± 9 nM | –
COCCOCCn1nc(-c2cnc3ccc(F)cn23)c2ccc(C(=O)N3CCCCCC3)cc21.Cl | 159 to 165 °C | – | –
O=C(c1ccc2c(-c3cnc4ccc(F)cn34)c[nH]c2c1)N1CCCCCC1 [Example 134, 3-[6-(Azepan-1-ylcarbonyl)-1H-indol-3-yl]-6-fluoroimidazo[1,2-a]pyridine] | – | 348 ± 95 nM | –
CCN(C(=O)c1ccc(C(=O)c2cnc3ccccn23)cc1)c1ccccc1 [Example 56, N-Ethyl-4-(imidazo[1,2-a]pyridine-3-carbonyl)-N-phenyl-benzamide] | 141 to 145 °C | 188 ± 63 nM | –
Cl.Cn1nc(-c2cnc3ccc(F)cn23)c2ccc(C(=O)N3CCCCCCC3)cc21 (hydrate or solvate) [Example 97, Azocan-1-yl-[3-(6-fluoro-imidazo[1,2-a]pyridin-3-yl)-1-methyl-1H-indazol-6-yl]-methanone, chlorhydrate salt] | 241 to 249 °C | – | –
Nc1nc(-c2cnc3ccc(F)cn23)c2ccc(C(=O)N3CCCCCC3)cc2n1 [Example 136, 2-Amino-7-(azepan-1-ylcarbonyl)-4-(6-fluoroimidazo[1,2-a]pyridin-3-yl)quinazoline, HCl salt] | – | 84 ± 11 nM | –
Cl.O=C(c1ccc2c(-c3cnc4ccc(F)cn34)noc2c1)N1CCCCC1 | 203 to 205 °C | – | –
Cn1nc(-c2cnc3ccc(F)cn23)c2ccc(C(=O)N3CCCCCCC3)cc21 [Example 97, Azocan-1-yl-[3-(6-fluoro-imidazo[1,2-a]pyridin-3-yl)-1-methyl-1H-indazol-6-yl]-methanone, chlorhydrate salt] | – | 3 ± 0.4 nM | 21 ± 8 nM

SMILES | melting point | Ki [1] | IC50 [2]
Cl.Cn1nc(-c2cnc3ccc(F)cn23)c2ccc(C(=O)N3CCCCC3)cc21 (hydrate or solvate) | > 250 °C | – | –
Cl.Cn1nc(-c2cnc3ccc(C#N)cn23)c2ccc(C(=O)N3CCCCC3)cc21 (hydrate or solvate) | > 250 °C | – | –
Cl.Cn1nc(-c2cnc3ccc(F)cn23)c2ccc(C(=O)N3CCCC4CCCCC43)cc21 (stereo not drawn) | 248 to 249 °C | – | –
Cl.O=C(c1ccc2c(-c3cnc4ccc(F)cn34)nn(CCN3CCOCC3)c2c1)N1CCCCCC1 | 230 to 245 °C | – | –
Cc1ccc2ncc(-c3nn(C)c4cc(C(=O)N5CCCCCC5)ccc34)n2c1.Cl | > 250 °C | – | –
Cl.Cn1nc(-c2cnc3ccc(C4CC4)cn23)c2ccc(C(=O)N3CCCCCC3)cc21 | > 250 °C | – | –
CN(C(=O)c1ccc2c(-c3cnc4ccc(F)cn34)nn(C)c2c1)c1ccccc1.Cl | > 250 °C | – | –
Cl.N#Cc1ccc2ncc(-c3noc4cc(C(=O)N5CCCCCC5)ccc34)n2c1 | 234 to 235 °C | – | –
COC[C@H]1CCCN1C(=O)c1ccc2c(-c3cnc4ccc(C#N)cn34)nn(C)c2c1 [Example 101, 3-(1-Methyl-6-{[(2R)-2-(methoxymethyl)pyrrolidin-1-yl]carbonyl}-1H-indazol-3-yl)imidazo[1,2-a]pyridine-6-carbonitrile, chlorhydrate salt] | – | 3 nM | 12 ± 4 nM
CCN(C(=O)c1ccc2c(-c3cnc4ccc(F)cn34)noc2c1)C(C)C.Cl | 219 to 225 °C | – | –
Cl.Cn1nc(-c2cnc3ccccn23)c2ccc(C(=O)N3CCCCCC3)cc21 | > 250 °C | – | –
CCN(C(=O)c1ccc(C(=O)c2cnc3ccccn23)nc1)C1CCCCC1 [Example 23, N-Cyclohexyl-N-ethyl-6-(imidazo[1,2-a]pyridine-3-carbonyl)-nicotinamide] | – | 264 ± 141 nM | 403 ± 163 nM
Cl.Cn1nc(-c2cnc3ccc(C#N)cn23)c2ccc(C(=O)N3CCCCCC3)cc21 | > 250 °C | – | –
Cl.Cn1nc(-c2cnc3ccc(C(F)(F)F)cn23)c2ccc(C(=O)N3CCCCCC3)cc21 [Example 85, [6-(Azepan-1-ylcarbonyl)]-1-methyl-3[6-(trifluoromethyl)-imidazo[1,2-a]pyridin-3-yl]-1H-indazole, HCl salt] | 202 to 204 °C | 177 ± 5 nM | –
CCN(C(=O)c1ccc2c(-c3cnc4ccc(F)cn34)nn(C)c2c1)C(C)C.Cl | > 250 °C | – | –
CCN(C(=O)c1ccc(C(=O)c2cnc3ccc(C#N)cn23)cc1)C1CCCCC1 [Example 7, 4-(6-Cyano-imidazo[1,2-a]pyridine-3-carbonyl)-N-cyclohexyl-N-ethyl-benzamide] | – | 171 ± 104 nM | –
CCc1ccc2ncc(-c3nn(C)c4cc(C(=O)N5CCCCCC5)ccc34)n2c1.Cl | > 250 °C | – | –
CN(C(=O)c1ccc(C(=O)c2cnc3ccc(F)cn23)cc1)c1ccccc1 [Example 50, 4-(6-Fluoro-imidazo[1,2-a]pyridine-3-carbonyl)-N-methyl-N-phenyl-benzamide] | 131 to 135 °C | – | –
CN1CCN(C(=O)n2nc(-c3cnc4ccc(F)cn34)c3ccc(C(=O)N4CCCCCC4)cc32)CC1.Cl [Example 111, Azepan-1-yl-[3-(6-fluoro-imidazo[1,2-a]pyridin-3-yl)-1-[(4-methylpiperazin-1-yl)carbonyl]-1H-indazol-6-yl]-methanone, HCl salt] | 193 to 199 °C | 291 ± 30 nM | –

Source: patent US9029393B2, “Adenosine receptor ligands and uses thereof” (Kaldi Pharma, SAS, priority 2009, dated 2015)
